From US20210063414A1, “METHODS FOR PREVENTING AND/OR TREATING BONE LOSS CONDITIONS BY MODULATING IRISIN” (Dana-Farber Cancer Institute, Inc., priority 2018, published 2021)
“Also recorded” adds a separate entry of the source. Counter-ions that a name gives are not always drawn.

How the values were obtained:
MLO-Y4 cells = assay: Integrin-like signaling (pFAK, pZyxin, pAKT, pCREB) in MLO-Y4 cells, immunoblot; format: cell-based; conditions: for effect of integrin inhibitor on irisin-induced signaling (phosphorylation of FAK, Zyxin, CREB): MLO-Y4, inhibitor pre-treatment 10 minutes before irisin
Description: Integrin heterodimer binds to its ligand. The interaction results in phosphorylation of FAK and Zyxin, followed by phosphorylation of AKT (at T308) and CREB. PM is plasma membrane. FIG. 2C and FIG. 2D show the immunoblots. MLO-Y4 cells were seeded and incubated until 60% cell density. The cells were incubated with serum free medium (FreeStyle™ 293 medium) for 4 hours and were treated for indicated time with 10 nM norepinephrine or irisin (FIG. 2C) or indicated concentrations of irisin for 10 minutes (FIG. 2D). Cells were lysed to detect the indicated protein level using immunoblot analysis.
(§1) Certain materials and methods were used to generate the results described herein. For example, the data shown in FIG. 1A resulted from MLO-Y4 (an osteocyte-like cell line) cells treated with the indicated concentration of irisin and hydrogen peroxide for 4 hours. Cells were stained with Hoechst 33342 (ThermoFisher Scientific, catalog number H3570) and Eth-D1 (ThermoFisher Scientific, catalog number E1169) and analyzed to determine the percentage of cell death using ImageJ. The data shown in FIG. 2D resulted from MLO-Y4 incubated in serum free medium (FreeStyle™ 293 expression medium, ThermoFisher Scientific, catalog number 12338018) for 4 hours followed by treatment of indicated concentrations of irisin for 10 minutes. Cells were lysed to detect the indicated protein level using immunoblot analysis (Cell Signaling Technology, catalog numbers 3283S, 3285S, 8467S, 3553S, 9198S, and 9104S; Abcam, catalog number ab49900-100ul). The data shown in FIG. 3 resulted from 3T3-F442A cells incubated in serum free medium for 4 hours followed by treatment of indicated concentrations of irisin for 10 minutes. Cells were lysed by RIPA buffer to detect the indicated protein level using immunoblot analysis. The data shown in FIG. 4 were generated from 100 nM flag-tagged irisin (Enzo life sciences, catalog number ADI-908-307-3010) incubated with 5 nM of the indicated 6 his-tag integrins (R & D Systems Inc., catalog numbers 7064-AB-025, 5668-A4-050, 5438-A9-050, 6357-AB-050, and 6579-AV-025) in the presence of RGDS peptide (R & D Systems Inc., catalog number 3498/10) or its control peptide (Enzo Life Sciences, catalog Number BML-P701-0005) followed by immunoprecipitation using 6 his-tag beads (ThermoFisher Scientific, catalog number R901-01). Co-precipitated irisin was analyzed by immunoblot analysis against flag tag (Sigma Aldrich, catalog number A8592). The data shown in FIGS. 5A and 5B were generated from MLO-Y4 cells treated and analyzed as in the experiments used to generate the data shown in FIG. 2D, except that pre-treatment of 100 nM RGDS (FIG. 5A) or echistatin (R & D Systems Inc., catalog number 3202/100U) (FIG. 5B) for 10 minutes was performed before irisin treatment. The data shown in FIGS. 6A and 6B were generated from MLO-Y4 cells incubated in serum free medium for 3 hours followed by treatment of indicated time of 10 nM irisin for 16 hours. RNAs were extracted from the cells and the sclerostin mRNA level was analyzed by qPCR (FIG. 6A) or treated and analyzed as in (FIG. 6A), except that pre-treatment of 10 μM RGDS, RGDyK (Selleck, catalog number S7844), or echistatin was performed for 10 minutes before irisin treatment. The data shown in FIGS. 7A and 7B were generated from 8 week-old mice injected with the indicated dose of irisin for 6 days. Tibias were collected and treated with collagenase to obtain mRNA from the osteocyte-enriched bones. Sclerostin mRNA level was analyzed by qPCR (FIG. 7A). Serum was collected to analyze the sclerostin protein level using ELISA kit (R&D Systems Inc., catalog number MSST00) (FIG. 7B). The data shown in FIG. 8 were generated from 8 week-old mice injected with the indicated dose of irisin for 6 days. Epididymal fats were collected, RNAs were extracted from the tissues, and mRNA levels of the indicated genes were analyzed by qPCR. […]

[1] = system: sclerostin mRNA in MLO-Y4 cells; assay: Sclerostin mRNA in MLO-Y4 cells, qRT-PCR; format: cell-based, mouse; conditions: MLO-Y4, inhibitor pre-treatment 10 minutes, irisin 16 hours
Description: Cells were stained with Hoechst 33342 and Eth-D1, and analyzed to determine the percentage of cell death. *: p<0.05, ***: p<0.001 vs 0.3 mM H2O2 treated condition. […] MLO-Y4 cells were seeded and incubated until 60% cell density. The cells were incubated with Freestyle293 medium for 4 hours and were treated with indicated concentrations of irisin for 16 hours. Sclerostin mRNA level was analyzed by qRT-PCR. Cyclophilin was used as a control house-keeping gene.
MLO-Y4 cells were incubated in serum free medium for 3 hours followed by treatment of indicated concentrations of irisin for indicated time (FIG. 6A), or followed by treatment of 0 or 10 nM irisin in the presence of indicated integrin inhibitors or their control peptide for 16 hours (FIG. 6B). Sclerostin mRNA level was analyzed by qPCR.
as §1, with “The data shown in FIGS. 7A and 7B were generated from 8 week-old mice injected with the indicated dose of irisin for 6 days. Tibias were collected and treated with collagenase to obtain mRNA from the osteocyte-enriched bones.” left out, “7A).” for “7A). Serum was collected to analyze the sclerostin protein level using ELISA kit (R&D Systems Inc., catalog number MSST00) (FIG. 7B). The data shown in FIG. 8 were generated from 8 week-old mice injected with the indicated dose of irisin for 6 days. Epididymal fats were collected, RNAs were extracted from the tissues, and mRNA levels of the indicated genes were analyzed by qPCR.”

sclerostin = assay: Irisin injection in mice: sclerostin mRNA in osteocyte-enriched bones and plasma sclerostin protein (ELISA); format: in vivo; conditions: co-injection of 1 mg/kg inhibitor with irisin
Description: 8 weeks old mice were injected daily with indicated dose of irisin for 6 days. […] were collected and treated with collagenase to yield osteocyte-enriched bones. Sclerostin mRNA level from osteocyte-enriched tibia was analyzed by qPCR (FIG. 7A). Cyclophilin was used as a house-keeping gene. Plasma was collected to analyze the circulating sclerostin protein level by ELISA assay (FIG. 7B). Data are represented as mean±SEM. For FIG. 7A and FIG. 7B, n=5 animals/group. * indicates p<0.05, and *** indicates p<0.001.
Certain materials and methods were used to generate the results described herein. For example, the data shown in FIG. 1A resulted from MLO-Y4 (an osteocyte-like cell line) cells treated with the indicated concentration of irisin and hydrogen peroxide for 4 hours. Cells were stained with Hoechst 33342 (ThermoFisher Scientific, catalog number H3570) and Eth-D1 (ThermoFisher Scientific, catalog number E1169) and analyzed to determine the percentage of cell death using ImageJ. […] Co-precipitated irisin was analyzed by immunoblot analysis against flag tag (Sigma Aldrich, catalog number A8592). The data shown in FIGS. 5A and 5B were generated from MLO-Y4 cells treated and analyzed as in the experiments used to generate the data shown in FIG. 2D, except that pre-treatment of 100 nM RGDS (FIG. 5A) or echistatin (R & D Systems Inc., catalog number 3202/100U) (FIG. 5B) for 10 minutes was performed before irisin treatment. […] RNAs were extracted from the cells and the sclerostin mRNA level was analyzed by qPCR (FIG. 6A) or treated and analyzed as in (FIG. 6A), except that pre-treatment of 10 μM RGDS, RGDyK (Selleck, catalog number S7844), or echistatin was performed for 10 minutes before irisin treatment. […] Sclerostin mRNA level was analyzed by qPCR (FIG. 7A). […] Epididymal fats were collected, RNAs were extracted from the tissues, and mRNA levels of the indicated genes were analyzed by qPCR. […]

| Molecule | phosphorylation of CREB (positive control) (MLO-Y4 cells; MLO-Y4, 10 nM) | effect of integrin inhibitor on irisin-induced sclerostin mRNA [1] | effect of integrin inhibitor on irisin-induced signaling (phosphorylation of FAK, Zyxin, CREB) (MLO-Y4 cells) | effect of integrin inhibitor on irisin-induced signaling (phosphorylation of FAK, Zyxin, CREB) (MLO-Y4 cells; listed as Echistatin) | effect on irisin-induced gene expression of sclerostin in osteocyte-enriched bones (sclerostin) |
| --- | --- | --- | --- | --- | --- |
| NC[C@H](O)c1ccc(O)c(O)c1 [norepinephrine, L-(−)-Norephinephrine (+)-bitartrate salt monohyrdate] | also did this | – | – | – | – |
| echistatin: natural integrin inhibitor isolated from viper venom, affects primarily integrin αV complexes (QCESGPCCRNCKFLKEGTICKRARGDDMDDYCNGKTCDCPRNPHKGPAT) | – | sensitive; also recorded: prevented sclerostin induction | most irisin signaling in osteocytes was inhibited | effectively prevented irisin signaling | – |
| CNc1cccc(CCOc2ccc3c(c2)CN(CC(F)(F)F)C(=O)[C@H](CC(=O)O)C3)n1 [SB273005, reference compound] | – | – | block irisin-induced signaling | – | significantly prevented |
